# Results: ChEMBL document CHEMBL3098109, “The identification of AF38469: an orally bioavailable inhibitor of the VPS10P family sorting receptor Sortilin” (Bioorg Med Chem Lett, 2014)
# Assays:
# [1] = Blood clearance in rat at 1 mg/kg, iv; format: ADME, organism-based; design: dose 1 mg/kg, route intravenous; conditions: whole blood
# [2] = Solubility of the compound; format: physicochemical
# [3] = Half life in rat at 1 mg/kg, iv; format: ADME, organism-based; design: dose 1 mg/kg, route intravenous; conditions: in vivo
# [4] = Oral bioavailability in rat at 2 mg/kg; format: ADME, organism-based; conditions: in vivo
# [5] = Volume of distribution at steady state in rat at 1 mg/kg, iv; format: ADME, organism-based; design: dose 1 mg/kg, route intravenous; conditions: in vivo, read-out: Vdss
# [6] = Free plasma concentration in rat; format: ADME, cell-free
# [7] = Intrinsic clearance in rat; format: ADME, organism-based; conditions: in vivo
# [8] = Cmax in rat at 2 mg/kg, po; format: ADME, organism-based; design: dose 2 mg/kg, route oral; conditions: in vivo
# Sortilin (Homo sapiens) = Sortilin (Homo sapiens) (UniProt Q99523); experiment: Displacement of [3H]-neurotensin from sortilin (unknown origin) at 50 uM incubated 30 mins prior to [3H]-neurotensin addition measured after 6 hrs by scintillation proximity assay
# Sortilin = target: T1, Sortilin (Homo sapiens, UniProt Q99523)
# T1 sequence (Q99523 whole entry): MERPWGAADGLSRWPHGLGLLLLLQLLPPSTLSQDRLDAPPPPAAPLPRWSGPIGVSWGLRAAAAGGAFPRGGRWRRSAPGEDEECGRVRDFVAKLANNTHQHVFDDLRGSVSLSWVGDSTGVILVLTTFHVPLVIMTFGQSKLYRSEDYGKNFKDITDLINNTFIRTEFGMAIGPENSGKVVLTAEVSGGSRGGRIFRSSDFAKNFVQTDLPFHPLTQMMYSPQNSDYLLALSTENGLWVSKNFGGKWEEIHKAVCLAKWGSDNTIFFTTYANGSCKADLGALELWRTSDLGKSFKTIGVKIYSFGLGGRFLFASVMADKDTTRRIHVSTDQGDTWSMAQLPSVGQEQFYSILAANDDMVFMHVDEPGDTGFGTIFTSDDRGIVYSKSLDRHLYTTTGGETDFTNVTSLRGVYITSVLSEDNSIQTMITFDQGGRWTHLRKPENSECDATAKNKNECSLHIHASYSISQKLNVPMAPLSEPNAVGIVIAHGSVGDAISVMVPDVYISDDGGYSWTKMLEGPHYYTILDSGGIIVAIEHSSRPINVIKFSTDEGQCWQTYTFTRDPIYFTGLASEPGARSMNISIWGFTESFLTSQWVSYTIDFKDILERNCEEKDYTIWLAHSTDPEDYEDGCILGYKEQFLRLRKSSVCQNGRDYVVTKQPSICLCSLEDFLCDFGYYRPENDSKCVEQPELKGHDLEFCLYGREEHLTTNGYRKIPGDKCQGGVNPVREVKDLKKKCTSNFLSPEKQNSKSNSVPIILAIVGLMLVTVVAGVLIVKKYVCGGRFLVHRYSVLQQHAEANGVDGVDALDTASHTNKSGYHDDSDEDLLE
inhibition (Sortilin (Homo sapiens)),SMILES,other results
–,Cc1cccc(NC(=O)c2ccc(C(F)(F)F)cc2C(=O)O)n1,clearance [1]: 0.5 mL/min/kg; solubility [2]: 134 µg/mL; half-life [3]: 1.2 h; bioavailability [4]: 35%; Vd [5]: 0.02 L/kg; fraction unbound [6]: 0.02; CLint scaled [7]: 6.67 mL/min/kg; Cmax [8]: 12800 ng/mL
35%,CC(C)NC(=O)c1ccc(Br)cc1C(=O)O,–
15%,Cc1cccc(NC(=O)c2ccccc2C(=O)O)n1,–
30%,CCC(C)NC(=O)c1ccc(Br)cc1C(=O)O (stereo not given),–
70%,Cc1ccc(NC(=O)c2ccc(Br)cc2C(=O)O)cn1,–
–,Cc1cc(=O)oc2c(CN[C@@H](CC(C)C)C(=O)O)c(O)ccc12,IC50 (Sortilin): 4 µM
57%,Cc1ccc(C(=O)O)c(C(=O)Nc2cccc(C)n2)c1,–
69%,O=C(O)c1cc(Br)ccc1C(=O)Nc1ccccc1,–
69%,Cc1cccc(NC(=O)c2cc(Cl)ccc2C(=O)O)n1,–
64%,Cc1cccnc1NC(=O)c1ccc(Br)cc1C(=O)O,–
43%,Cc1cccc(NC(=O)c2c(C)cccc2C(=O)O)n1,–
5%,Cc1cccc(NC(=O)c2cccc(C)c2C(=O)O)n1,–
2%,Cc1cccc(NC(=O)c2ccc(-c3ccccc3)cc2C(=O)O)n1,–
